Results published in the supplement of paper PMC10307832.

What was measured:
Assay in all cases: relative viability (nuclei count vs DMSO), 5 days (fraction); higher = more cells survive
HCC-15 = tested on: HCC-15
Method in brief: (§1)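 Lung cancer cell lines, seeded in 1536-well plates, were treated the following day by pin tool with a single drug or with five library-drug doses (not always all listed) in √10 steps on top of a fixed anchor-drug dose. Cells were fixed and nuclei stained in one step after 5 days, and nuclei were counted. Relative viability is the nuclei count for treated wells divided by that for vehicle wells, reported as medians of duplicate plates.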

NCI-H650 = tested on: NCI-H650
Method in brief: as §1

SK-LU-1 = tested on: SK-LU-1
Method in brief: as §1

NCI-H1915 = tested on: NCI-H1915
Method in brief: as §1

IA-LM = tested on: IA-LM
Method in brief: as §1

NCI-H1648 = tested on: NCI-H1648
Method in brief: as §1

NCI-H1975 = tested on: NCI-H1975
Method in brief: as §1

NCI-H1793 = tested on: NCI-H1793
Method in brief: as §1

HARA = tested on: HARA
Method in brief: as §1

EBC-1 = tested on: EBC-1
Method in brief: as §1

Calu-6 = tested on: Calu-6
Method in brief: as §1

NCI-H1299 = tested on: NCI-H1299
Method in brief: as §1

A549 = tested on: A549
Method in brief: as §1

NCI-H1703 = tested on: NCI-H1703
Method in brief: as §1

COCC1(CO)C(=O)C2CCN1CC2 (stereo unspecified) [PRIMA-1MET] + O=C(CCCCCCC(=O)Nc1ccccc1)NO [Vorinostat] (partner 1 µM)
relative viability (HCC-15; first compound 0.2 µM): 0.962 | relative viability (HCC-15; first compound 0.6325 µM): 0.798 | relative viability (HCC-15; first compound 2 µM): 0.887 | relative viability (HCC-15; first compound 6.325 µM): 0.871 | relative viability (HCC-15; first compound 20 µM): 0.758 | relative viability (NCI-H650; first compound 0.2 µM): 0.54 | relative viability (NCI-H650; first compound 0.6325 µM): 0.361 | relative viability (NCI-H650; first compound 2 µM): 0.442 | relative viability (NCI-H650; first compound 6.325 µM): 0.311 | relative viability (NCI-H650; first compound 20 µM): 0.0619 | relative viability (SK-LU-1; first compound 0.2 µM): 0.852 | relative viability (SK-LU-1; first compound 0.6325 µM): 0.761 | relative viability (SK-LU-1; first compound 2 µM): 0.839 | relative viability (SK-LU-1; first compound 6.325 µM): 0.673 | relative viability (SK-LU-1; first compound 20 µM): 0.561 | relative viability (NCI-H1915; first compound 0.2 µM): 0.605 | relative viability (NCI-H1915; first compound 0.6325 µM): 0.378 | relative viability (NCI-H1915; first compound 2 µM): 0.446 | relative viability (NCI-H1915; first compound 6.325 µM): 0.625 | relative viability (NCI-H1915; first compound 20 µM): 0.482 | relative viability (IA-LM; first compound 0.2 µM): 0.971 | relative viability (IA-LM; first compound 0.6325 µM): 0.74 | relative viability (IA-LM; first compound 2 µM): 0.926 | relative viability (IA-LM; first compound 6.325 µM): 1.06 | relative viability (IA-LM; first compound 20 µM): 1.05 | relative viability (NCI-H1648; first compound 0.2 µM): 0.668 | relative viability (NCI-H1648; first compound 2 µM): 0.445 | relative viability (NCI-H1648; first compound 20 µM): 0.621 | relative viability (NCI-H1975; first compound 0.2 µM): 0.766 | relative viability (NCI-H1975; first compound 0.6325 µM): 0.657 | relative viability (NCI-H1975; first compound 2 µM): 0.736 | relative viability (NCI-H1975; first compound 6.325 µM): 0.725 | relative viability (NCI-H1975; first compound 20 µM): 0.698 | relative viability (NCI-H1793; first compound 0.2 µM): 0.932 | relative viability (NCI-H1793; first compound 0.6325 µM): 0.488 | relative viability (NCI-H1793; first compound 6.325 µM): 0.797 | relative viability (NCI-H1793; first compound 20 µM): 0.762 | relative viability (HARA; first compound 0.2 µM): 0.544 | relative viability (HARA; first compound 0.6325 µM): 0.266 | relative viability (HARA; first compound 6.325 µM): 0.587 | relative viability (HARA; first compound 20 µM): 0.499

COCC1(CO)C(=O)C2CCN1CC2 (stereo unspecified) [PRIMA-1MET] + O=C(c1cc(Cc2n[nH]c(=O)c3ccccc23)ccc1F)N1CCN(C(=O)C2CC2)CC1 [Olaparib] (partner 8 µM)
relative viability (HCC-15; first compound 0.2 µM): 0.789 | relative viability (HCC-15; first compound 0.6325 µM): 0.772 | relative viability (HCC-15; first compound 2 µM): 0.746 | relative viability (HCC-15; first compound 6.325 µM): 0.668 | relative viability (HCC-15; first compound 20 µM): 0.628 | relative viability (EBC-1; first compound 0.2 µM): 0.692 | relative viability (EBC-1; first compound 0.6325 µM): 0.712 | relative viability (EBC-1; first compound 2 µM): 0.701 | relative viability (EBC-1; first compound 6.325 µM): 0.828 | relative viability (EBC-1; first compound 20 µM): 0.7 | relative viability (NCI-H650; first compound 0.2 µM): 0.492 | relative viability (NCI-H650; first compound 0.6325 µM): 0.453 | relative viability (NCI-H650; first compound 2 µM): 0.339 | relative viability (NCI-H650; first compound 6.325 µM): 0.368 | relative viability (NCI-H650; first compound 20 µM): 0.187 | relative viability (SK-LU-1; first compound 0.2 µM): 0.504 | relative viability (SK-LU-1; first compound 0.6325 µM): 0.494 | relative viability (SK-LU-1; first compound 2 µM): 0.365 | relative viability (SK-LU-1; first compound 6.325 µM): 0.455 | relative viability (SK-LU-1; first compound 20 µM): 0.237 | relative viability (Calu-6; first compound 0.2 µM): 0.547 | relative viability (Calu-6; first compound 0.6325 µM): 0.588 | relative viability (Calu-6; first compound 2 µM): 0.594 | relative viability (Calu-6; first compound 6.325 µM): 0.516 | relative viability (Calu-6; first compound 20 µM): 0.443 | relative viability (NCI-H1299; first compound 0.2 µM): 0.984 | relative viability (NCI-H1299; first compound 0.6325 µM): 0.921 | relative viability (NCI-H1299; first compound 2 µM): 0.99 | relative viability (NCI-H1299; first compound 6.325 µM): 0.959 | relative viability (NCI-H1299; first compound 20 µM): 0.984 | relative viability (NCI-H1915; first compound 0.2 µM): 0.249 | relative viability (NCI-H1915; first compound 0.6325 µM): 0.235 | relative viability (NCI-H1915; first compound 2 µM): 0.239 | relative viability (NCI-H1915; first compound 6.325 µM): 0.256 | relative viability (NCI-H1915; first compound 20 µM): 0.254 | relative viability (A549; first compound 0.2 µM): 0.528 | relative viability (A549; first compound 0.6325 µM): 0.365 | relative viability (A549; first compound 2 µM): 0.379 | relative viability (A549; first compound 6.325 µM): 0.371 | relative viability (A549; first compound 20 µM): 0.266 | relative viability (NCI-H1703; first compound 0.2 µM): 0.422 | relative viability (NCI-H1703; first compound 6.325 µM): 0.769 | relative viability (NCI-H1703; first compound 20 µM): 0.0733 | relative viability (IA-LM; first compound 0.2 µM): 0.867 | relative viability (IA-LM; first compound 0.6325 µM): 0.676 | relative viability (IA-LM; first compound 2 µM): 0.905 | relative viability (IA-LM; first compound 6.325 µM): 0.819 | relative viability (IA-LM; first compound 20 µM): 0.788 | relative viability (NCI-H1648; first compound 0.2 µM): 0.747 | relative viability (NCI-H1648; first compound 2 µM): 1.43 | relative viability (NCI-H1648; first compound 20 µM): 0.912 | relative viability (NCI-H1975; first compound 0.2 µM): 1.01 | relative viability (NCI-H1975; first compound 0.6325 µM): 0.699 | relative viability (NCI-H1975; first compound 2 µM): 0.775 | relative viability (NCI-H1975; first compound 6.325 µM): 0.847 | relative viability (NCI-H1975; first compound 20 µM): 0.616 | relative viability (NCI-H1793; first compound 0.2 µM): 1.04 | relative viability (NCI-H1793; first compound 0.6325 µM): 0.887 | relative viability (NCI-H1793; first compound 6.325 µM): 0.843 | relative viability (NCI-H1793; first compound 20 µM): 0.539 | relative viability (HARA; first compound 0.2 µM): 0.69 | relative viability (HARA; first compound 0.6325 µM): 0.832 | relative viability (HARA; first compound 2 µM): 0.7 | relative viability (HARA; first compound 6.325 µM): 0.75 | relative viability (HARA; first compound 20 µM): 0.741
